# Measured values taken from PubChem BioAssay (NCI).
#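 Where inhibition never reached the appropriate level, the endpoint shown equals the highest concentration tested. Otherwise, values were interpolated linearly from a five-concentration, 48-hour dose response in 96-well plates. Definition used: TGI = concentration required for complete inhibition of growth.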
# Legend:
# Test in all cases: NCI tumour cell line growth inhibition, 48 h
# P388/ADR leukemia = tested on: P388/ADR leukemia
# SN12K1 renal = tested on: SN12K1 renal
# KM20L2 colon = tested on: KM20L2 colon
# DMS 273 small cell lung = tested on: DMS 273 small cell lung
# P388 leukemia = tested on: P388 leukemia
# M19-MEL melanoma = tested on: M19-MEL melanoma
# RXF-631 renal = tested on: RXF-631 renal
# LXFL 529 NSCLC = tested on: LXFL 529 NSCLC
Compound,TGI (P388/ADR leukemia) [µM],TGI (SN12K1 renal) [µM],TGI (KM20L2 colon) [µM],TGI (DMS 273 small cell lung) [µM],TGI (P388 leukemia) [µM],TGI (M19-MEL melanoma) [µM],TGI (RXF-631 renal) [µM],TGI (LXFL 529 NSCLC) [µM]
O=C1C(Br)=CC2([N+](=O)[O-])CCNc3c(O)c4c5c(c3C2=C1Br)=NCCC=5C=N4 (stereo not drawn),2.35,14.7,10.4,6.92,1.14,–,–,–
N/N=C(\C(=O)Nc1c(Cl)cc([N+](=O)[O-])cc1Cl)C(c1cnc2ccc([N+](=O)[O-])cc2n1)[N+](=O)[O-] (stereo not drawn),–,–,> 100,> 100,–,> 100,–,–
CCCC/C=C1\CCC(CN2CCCCC2)C1=O (stereo not drawn),–,–,32.9,–,–,34.5,> 65.2,3.26
COc1ccc2c3c1OC1CC(O)C=CC31CCN(C)C2 (stereo not drawn),> 150,> 150,> 150,> 150,> 150,> 150,–,–
